Test results published in PubChem BioAssay (NCI).
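Where inhibition never reached the appropriate level, the endpoint shown equals the highest concentration tested. Otherwise, values were interpolated linearly from a five-concentration, 48-hour dose response in 96-well plates. Abbreviation: GI50, concentration required for 50% inhibition of growth. TGI denotes the concentration required for complete inhibition of growth.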

Key:
Experiment in all cases: DTP human tumour cell line panel, 48 h
IGROV1 ovarian = system: IGROV1 ovarian
PC-3 prostate = system: PC-3 prostate
M14 melanoma = system: M14 melanoma
SW-620 colon = system: SW-620 colon
SK-MEL-5 melanoma = system: SK-MEL-5 melanoma
OVCAR-8 ovarian = system: OVCAR-8 ovarian
A498 renal = system: A498 renal
CAKI-1 renal = system: CAKI-1 renal
MALME-3M melanoma = system: MALME-3M melanoma
TK-10 renal = system: TK-10 renal
SF-295 CNS = system: SF-295 CNS
KM12 colon = system: KM12 colon
ACHN renal = system: ACHN renal
MDA-MB-231 breast = system: MDA-MB-231 breast
T-47D breast = system: T-47D breast
EKVX NSCLC = system: EKVX NSCLC
UO-31 renal = system: UO-31 renal
CCRF-CEM leukemia = system: CCRF-CEM leukemia
SF-268 CNS = system: SF-268 CNS
SN12C renal = system: SN12C renal
A549 NSCLC = system: A549 NSCLC
SR leukemia = system: SR leukemia
HS 578T breast = system: HS 578T breast
NCI/ADR-RES ovarian = system: NCI/ADR-RES ovarian
SF-539 CNS = system: SF-539 CNS
HT29 colon = system: HT29 colon
U251 CNS = system: U251 CNS
NCI-H23 lung = system: NCI-H23 lung
RXF 393 renal = system: RXF 393 renal
OVCAR-4 ovarian = system: OVCAR-4 ovarian
NCI-H460 lung = system: NCI-H460 lung
NCI-H226 lung = system: NCI-H226 lung
HCT-15 colon = system: HCT-15 colon
RPMI-8226 leukemia = system: RPMI-8226 leukemia
786-0 renal = system: 786-0 renal
HCT-116 colon = system: HCT-116 colon
MDA-MB-435 = system: MDA-MB-435
HOP-62 NSCLC = system: HOP-62 NSCLC
K-562 leukemia = system: K-562 leukemia
BT-549 breast = system: BT-549 breast
UACC-62 melanoma = system: UACC-62 melanoma
OVCAR-5 ovarian = system: OVCAR-5 ovarian
SK-OV-3 ovarian = system: SK-OV-3 ovarian
HCC-2998 colon = system: HCC-2998 colon
SK-MEL-28 melanoma = system: SK-MEL-28 melanoma
UACC-257 melanoma = system: UACC-257 melanoma
SNB-75 CNS = system: SNB-75 CNS
SK-MEL-2 melanoma = system: SK-MEL-2 melanoma
NCI-H522 lung = system: NCI-H522 lung
DU-145 prostate = system: DU-145 prostate
HOP-92 NSCLC = system: HOP-92 NSCLC
SNB-19 CNS = system: SNB-19 CNS
MCF7 breast = system: MCF7 breast
COLO 205 colon = system: COLO 205 colon
HL-60(TB) leukemia = system: HL-60(TB) leukemia
LOX IMVI melanoma = system: LOX IMVI melanoma
MOLT-4 leukemia = system: MOLT-4 leukemia
OVCAR-3 ovarian = system: OVCAR-3 ovarian

## CC(C)NCCCCCNc1cc(O)cc2cccnc12
IGROV1 ovarian
  GI50: 4.81 µM
  TGI: > 100 µM
PC-3 prostate
  GI50: > 100 µM
  TGI: > 100 µM
M14 melanoma
  GI50: > 100 µM
  TGI: > 100 µM
SW-620 colon
  GI50: > 100 µM
  TGI: > 100 µM
SK-MEL-5 melanoma
  GI50: 98.1 µM
  TGI: > 100 µM
OVCAR-8 ovarian
  GI50: > 100 µM
  TGI: > 100 µM
A498 renal
  TGI: > 100 µM
CAKI-1 renal
  GI50: > 100 µM
  TGI: > 100 µM
MALME-3M melanoma
  TGI: > 100 µM
TK-10 renal
  GI50: > 100 µM
  TGI: > 100 µM
SF-295 CNS
  GI50: > 100 µM
  TGI: > 100 µM
KM12 colon
  GI50: > 100 µM
  TGI: > 100 µM
ACHN renal
  GI50: > 100 µM
  TGI: > 100 µM
MDA-MB-231 breast
  GI50: 4.78 µM
  TGI: > 100 µM
T-47D breast
  GI50: 4.56 µM
  TGI: > 100 µM
EKVX NSCLC
  GI50: 22.8 µM
  TGI: > 100 µM
UO-31 renal
  GI50: 85.2 µM
  TGI: > 100 µM
CCRF-CEM leukemia
  GI50: > 51.2 µM
  TGI: > 100 µM
SF-268 CNS
  GI50: > 100 µM
  TGI: > 100 µM
SN12C renal
  GI50: > 100 µM
  TGI: > 100 µM
A549 NSCLC
  GI50: > 100 µM
  TGI: > 100 µM
SR leukemia
  GI50: > 100 µM
  TGI: > 100 µM
HS 578T breast
  GI50: > 42.5 µM
  TGI: > 100 µM
NCI/ADR-RES ovarian
  GI50: > 100 µM
  TGI: > 100 µM
SF-539 CNS
  GI50: > 100 µM
  TGI: > 100 µM
HT29 colon
  GI50: 31.6 µM
  TGI: > 100 µM
U251 CNS
  GI50: > 100 µM
  TGI: > 100 µM
NCI-H23 lung
  GI50: > 24.6 µM
  TGI: > 100 µM
RXF 393 renal
  GI50: > 100 µM
  TGI: > 100 µM
OVCAR-4 ovarian
  GI50: 4.14 µM
  TGI: > 100 µM
NCI-H460 lung
  GI50: > 100 µM
  TGI: > 100 µM
NCI-H226 lung
  GI50: > 100 µM
  TGI: > 100 µM
HCT-15 colon
  GI50: > 100 µM
  TGI: > 100 µM
RPMI-8226 leukemia
  GI50: > 23.1 µM
  TGI: > 100 µM
786-0 renal
  GI50: > 100 µM
  TGI: > 100 µM
HCT-116 colon
  GI50: 67.9 µM
  TGI: > 100 µM
MDA-MB-435
  GI50: > 100 µM
  TGI: > 100 µM
HOP-62 NSCLC
  GI50: > 100 µM
  TGI: > 100 µM
K-562 leukemia
  GI50: > 100 µM
  TGI: > 100 µM
BT-549 breast
  GI50: > 37.7 µM
  TGI: > 100 µM
UACC-62 melanoma
  GI50: > 100 µM
  TGI: > 100 µM
OVCAR-5 ovarian
  GI50: > 100 µM
  TGI: > 100 µM
SK-OV-3 ovarian
  GI50: > 100 µM
  TGI: > 100 µM
HCC-2998 colon
  GI50: > 44.2 µM
  TGI: > 100 µM
SK-MEL-28 melanoma
  GI50: > 100 µM
  TGI: > 100 µM
UACC-257 melanoma
  GI50: 17.7 µM
  TGI: > 75.1 µM
SNB-75 CNS
  GI50: > 58.2 µM
  TGI: > 100 µM
SK-MEL-2 melanoma
  GI50: > 100 µM
  TGI: > 100 µM
NCI-H522 lung
  GI50: 3.94 µM
  TGI: > 100 µM
DU-145 prostate
  GI50: > 100 µM
  TGI: > 100 µM
HOP-92 NSCLC
  GI50: 6.89 µM
  TGI: > 100 µM
SNB-19 CNS
  GI50: > 100 µM
  TGI: > 100 µM
MCF7 breast
  GI50: 18.7 µM
  TGI: > 100 µM
COLO 205 colon
  GI50: 1880 nM
  TGI: > 100 µM
HL-60(TB) leukemia
  GI50: 751 nM
  TGI: 4.36 µM
LOX IMVI melanoma
  GI50: > 100 µM
  TGI: > 100 µM
MOLT-4 leukemia
  GI50: > 77.8 µM
  TGI: > 100 µM
OVCAR-3 ovarian
  GI50: 2430 nM
  TGI: 9.37 µM
